The source of these data is patent US8501911B2, “Methods of reducing inflammation and mucus hypersecretion” (Biomarck Pharmaceuticals, Ltd, priority 1999, dated 2013).

Several values for one entry are separate records, joined by “and”; a condition that tells them apart may be missing. Identical values can stand only once. Like-named read-outs stand apart in the source and are kept apart here. Residues, ends and D or L forms follow the SMILES beside them. *: point of attachment. Myristoyl = CCCCCCCCCCCCCC(=O)*

Assay [1] deals with PP2A. The assay is described as follows: Protein phosphatase activity assay in NHBE cells, PP2A. Type of assay: cell-based, human. To be noted: 8-Br-cGMP as low as 0.1 μM. On the procedure: To confirm further activation of PP2A by PKG in NHBE cells, cytosolic PP1 and PP2A activities were determined after exposure of the cells to 8-Br-cGMP. […] Accordingly, this PP2A activity appeared critical for mucin secretion to occur; when PKG-induced MARCKS dephosphorylation was blocked by okadaic acid or fostriecin, the secretory response to PKC/PKG activation or UTP stimulation was ameliorated (see Results-I-6-1 and Results-I-6-2, above).
Protein Phosphatase Activity Assay—PP1 and PP2A activities were measured using a protein phosphatase assay system (Life Technologies, Inc.) as known in the art with slight modification. Huang et al., Adv. Exp. Med. Biol. 396, 209-215 (1996). Briefly, NHBE cells were treated with 8-Br-cGMP or medium alone for 5 min. Cells were then scraped into a lysis buffer (50 mM Tris-HCl (pH 7.4), 0.1% beta-mecaptoethanol, 0.1 mM EDTA, 1 mM benaamidine, 10 μg/ml pepstatin A, 10 μg/ml leupeptin) and disrupted by sonication for 20 s at 4° C. […] Released ^32Pi was counted by scintillation. The protein concentration of each sample was determined by the Bradford assay. PP2A activity was expressed as the sample total phosphatase activity minus the activity remaining in the presence of 1 nM okadaic acid. PP1 activity was expressed as the difference between the activities remaining in the presence of 1 nM and 1 μM okadaic acid, respectively. […]

The test system of assay [2] is ozone-induced neutrophil migration into the airways. Description: Mouse model of ozone-induced COPD (BAL analysis). To be noted: for % Neutrophils found in BAL fluid: intratracheal 1.0 mM peptide 30 min before ozone 2 hours (PBS + Ozone 21.4); for IFNγ in BAL fluid: peptide pretreatment then ozone (PBS + ozone approx. 18); for IL-6 in BAL fluid: peptide pretreatment then ozone (PBS + ozone approx. 197); for KC in BAL fluid: peptide pretreatment then ozone (PBS + ozone approx. 240); for % Inhibition of neutrophil migration into BAL fluid: relative to control group treated with PBS. Format: in vivo. On the procedure:
Ten-week-old Balb/C female mice were obtained from Charles River laboratories and housed under NIH guidelines in groups of 5 per cage. The animals received standard rodent diet and filtered water ad libitum. Three treatment groups of mice, 5 animals in each group, were each anesthetized by intraperitoneal injection of Ketamine (100 mg/kg) and Xylazine (20 mg/kg) and then pretreated by intratracheal administration with […] of either PBS alone, or a solution of 1.0 mM MANS peptide in PBS, or a solution of a 1.0 mM of a MANS-fragment-peptide designated as SEQ ID NO: 15 (MA-GAQFSKTAAK) in PBS. After 30 minutes, the animals were then placed in the appropriate custom-made chamber for ozone or forced air exposures. The animals were exposed to ozone for 2 hours (at ozone concentrations of 1-10 ppm by a slightly modified method described by Haddad et al, 1995. (Haddad E-B, Salmon M, Sun J, Liu S, Das A, Adcock I, Barnes P J, and Chung K F, FEBS Letters, 363:285-288, 1995). The ozone was generated using an ozone generator apparatus model OL80F/B from OzoneLab, Burton, British Columbia, Canada. Ozone concentration was continuously monitored using a Teledyne Photometric O3 Analyzer (model 400E, Teledyne Instruments, City of Industry, Calif.). Two additional groups of mice, each without any pretreatment, were either exposed to ozone under the same conditions or exposed to forced air under conditions similar to the ozone treatment group but absent ozone. After exposure, the animals were sacrificed by exsanguination and the lungs were serially lavaged 2 times with 1.0 mL aliquots of PBS. The collected bronchoalveolar lavage (BAL) fluid was centrifuged to remove the cells for subsequent counting and differential analysis. Recovered lavage fluid was used for protein and additional analysis of IL-6, IFNγ, and KC (murine IL-8 analog) by ELISA assay (assay kits obtained from R&D Systems, Minneapolis, Minn.).

Assay [3] concerns LPS-induced lung inflammation. Format: in vivo, mouse. To be noted: for Hb / MPO / LDH / Total Protein: BAL fluid; for % Inhibition of MPO: mouse, in vivo; for % Inhibition of neutrophil migration: relative to PBS/LPS treatment. On the procedure: Thus, six to seven week old CD1 female mice weighing 15-20 grams were obtained from Charles River laboratories and housed in groups of 5 mice per cage. The animals received standard rodent diet and filtered water ad libitum. The animals were housed under NIH prescribed guidelines at standard temperature (64° to 79° F.) and relative humidity of 30 to 70%.
Four treatment groups of mice, with 5 animals in each group, were treated either with PBS followed by PBS, with PBS followed by LPS, with (myristoylated) MANS peptide followed by LPS, or with peptide of SEQ ID NO: 15 (MA-GAQFSKTAAK) followed by LPS.
Intranasal peptide instillation pre-treatment: A peptide of the invention to be evaluated in vivo for its ability to inhibit or reduce LPS-induced lung inflammation was dissolved in PBS at a concentration of 1 mM. Animals, anesthetized with 0.8% isofluorane by inhalation, were pretreated with 2×10 μl intranasal bolus of the peptide solution into one nostril 30 minutes prior to subsequent instillation with LPS.
Intranasal LPS instillation: Lipopolysaccharide (LPS) Endotoxin (Escherichia coli Serotype 011:B4 derived endotoxin; Sigma, St Louis, Mo.; see Sigma product information sheet L4130 titled Lipopolysaccharides from Escherichia coli 011:B4) was dissolved into phosphate buffered saline (PBS) at 2,500 μg/mL. To expose animals to endotoxin, a 10 μL intranasal bolus of 2,500 μg/ml endotoxin solution was administered to animals which had been anesthetized with 0.8% isofluorane by inhalation. The 10 μL bolus was applied into one nostril. Animals were monitored for labored breathing, lethargy, and decreased water/food intake following the endotoxin instillations.
Bronchoalveolar Lavage (BAL): Six hours after the last instillation, the animals were anesthetized (90 mg/kg Nembutal) and sacrificed by exsanguination. The lung was serially lavaged 2 times with 1.0 mL aliquots of PBS. The collected BAL fluid was centrifuged to remove the cells for subsequent counting and differential analysis. Recovered lavage fluid was used for analysis of total protein, myeloperoxidase (MPO), LDH, and hemoglobin.
Analysis: Aliquots of the BAL fluid were used immediately to assay for the levels of LDH, total protein, or hemoglobin (Hb) using the COBAS Fara analyzer (COBAS FARA II automated analyzer; Roche Diagnostic Systems Inc., Montclair, N.J.). An aliquot of BAL fluid was frozen at −80° C. for subsequent quantitation of myeloperoxidase (MPO) with a mouse-specific ELISA assay (Cell Sciences, Inc., Canton, Mass.). BAL data were analyzed by standard techniques to examine differences between the control and treatment groups.

Consider `Nc1nc2c(nc(Br)n2[C@@H]2O[C@@H]3COP(=O)(O)O[C@H]3[C@H]2O)c(=O)[nH]1` [8-Br-cGMP], for which the “Increase of PP2A activity” value in assay [1] is on record as “approximately 3 fold”. In assay [1] (5 min, baseline 0.1), this molecule had a PP2A activity of 0.3 nmol/mnin/mg proteins.

As to `CCCCCCCCCCCCCC(=O)NCC(=O)N[C@@H](C)C(=O)N[C@@H](CCC(N)=O)C(=O)N[C@@H](Cc1ccccc1)C(=O)N[C@@H](CO)C(=O)N[C@@H](CCCCN)C(=O)N[C@H](C(=O)N[C@@H](C)C(=O)N[C@@H](C)C(=O)N[C@@H](CCCCN)C(=O)NCC(=O)N[C@@H](CCC(=O)O)C(=O)N[C@@H](C)C(=O)N[C@@H](C)C(=O)N[C@@H](C)C(=O)N[C@@H](CCC(=O)O)C(=O)N[C@@H](CCCNC(=N)N)C(=O)N1CCC[C@H]1C(=O)NCC(=O)N[C@@H](CCC(=O)O)C(=O)N[C@@H](C)C(=O)N[C@@H](C)C(=O)N[C@H](C(=O)N[C@@H](C)C(=O)O)C(C)C)[C@@H](C)O` [MANS peptide] (Myristoyl-GAQFSKTAAKGEAAAERPGEAAVA-OH; C-terminus assumed), in assay [2] (after ozone exposure), the “Diminished IL-6 levels (inhibition) vs. PBS control” value is “approximately 85%”, the “Effect on interferon-γ levels” value is on record as “little effect” and the “Reduced neutrophil cell infiltration in the BAL fluid vs. PBS control” value is on record as 93%±5%. Further, the “Diminished IL-6 levels (inhibition) vs. PBS control” value in assay [2] (after ozone exposure, listed as MANS) is 88%±8%. In addition, in assay [2], the “% Neutrophils found in BAL fluid” value stood at 1.5%, the “IFNγ in BAL fluid” value is reported as “approximately 13 pg/ml”, the “IL-6 in BAL fluid” value was “approximately 23 pg/ml” and the “KC in BAL fluid” value is given as “approximately 60 pg/ml”. The “% Inhibition of neutrophil migration into BAL fluid” value in assay [2] came out at 93.0%. The Total cells counted in assay [3] (BAL 6 h after LPS, intranasal 2×10 μl of 1 mM peptide 30 min before LPS, Table 3 (PBS/LPS 264,200)) was 208,457. In addition, the Hb in assay [3] (Table 3 (PBS/LPS 0.19)) came out at 0.05 g/dL. In addition, the MPO in assay [3] (Table 3 (PBS/LPS 28.98)) was 9.49 ng/mL. For the same molecule, the LDH in assay [3] (Table 3 (PBS/LPS 60.40)) is reported as 68.57 units/L. Besides, in assay [3] (Table 3 (PBS/LPS 272.40)), the “Total Protein” value amounted to 175.00 µg/mL. For the same molecule, the “% Neutrophils of total cells” value in assay [3] (Table 3 (PBS/LPS 41.7)) worked out at 30.9%. For the same molecule, the Total neutrophils counted in assay [3] (Table 3 (PBS/LPS 110,061)) is given as 64,481. For the same molecule, in assay [3], the “% Inhibition of MPO” value amounted to 67.2% and the “% Inhibition of neutrophil migration” value came to 41.4%.

Turning to `CCCCCCCCCCCCCC(=O)NCC(=O)N[C@@H](C)C(=O)N[C@@H](CCC(N)=O)C(=O)N[C@@H](Cc1ccccc1)C(=O)N[C@@H](CO)C(=O)N[C@@H](CCCCN)C(=O)N[C@H](C(=O)N[C@@H](C)C(=O)N[C@@H](C)C(=O)N[C@@H](CCCCN)C(=O)O)[C@@H](C)O` [SEQ ID NO: 15, N-myristoyl-GAQFSKTAAK] (Myristoyl-GAQFSKTAAK-OH; C-terminus assumed), in assay [2] (after ozone exposure), the “Diminished IL-6 levels (inhibition) vs. PBS control” value was 75%±8% and ~75%; the “Diminished KC concentrations (inhibition) vs. PBS control” value is 38%±5% and ~40%; the “Effect on interferon-γ levels” value is “little effect”; the “Reduced neutrophil cell infiltration in the BAL fluid vs. PBS control” value is given as 47.7%±5%. Also, in assay [2], the “% Neutrophils found in BAL fluid” value was 11.2%, the “IFNγ in BAL fluid” value is on record as “approximately 9 pg/ml”, the “IL-6 in BAL fluid” value is “approximately 49 pg/ml” and the “KC in BAL fluid” value was “approximately 147 pg/ml”. Further, the “% Inhibition of neutrophil migration into BAL fluid” value in assay [2] is listed as 47.7%. In addition, the “Total Cell Counts” value in assay [3] (BAL 6 h after LPS, intranasal peptide 30 min before LPS, Table 4 (PBS/LPS 422,300)) was 628,075. Moreover, the Hb in assay [3] (Table 4 (PBS/LPS 0.01)) came to 0.01 g/dL. This molecule gave an MPO in assay [3] (Table 4 (PBS/LPS 17.33)) of 0.79 ng/mL. The molecule also had an LDH in assay [3] (Table 4 (PBS/LPS 107.80)) of 110.75 units/L. For the same molecule, in assay [3] (Table 4 (PBS/LPS 157.40)), the “Total Protein” value came to 120.25 µg/mL. Besides, the “% Neutrophils of total counts” value in assay [3] (Table 4 (PBS/LPS 28.2)) is 6.1%. Further, the “Total Neutrophil counts” value in assay [3] (Table 4 (PBS/LPS 119,114)) is reported as 38,548. In addition, in assay [3], the “% Inhibition of MPO” value came to 95.4% and the “% Inhibition of neutrophil migration” value is 67.6%.
